The kinase profiling compilation of Christmann-Franck et al. (2016)

molecular target: PRKD3 (human) (UniProt O94806); experiment: radiometric filter-binding kinase assay, Kinase HotSpot; details: compound 0.5 µM; ATP 10 µM

| SMILES | residual activity [%] |
| --- | --- |
| Cn1cc(/C=C2\C(=O)Nc3ccc(S(N)(=O)=O)cc32)c2ccccc21 | 76.4 |
| COc1cccc(-c2cc(=O)c3ccccc3o2)c1N | 94.3 |

molecular target: INSR (human) (UniProt P06213); experiment: as above; details: compound 0.5 µM; ATP 10 µM
Sequence (P06213 whole entry, looked up): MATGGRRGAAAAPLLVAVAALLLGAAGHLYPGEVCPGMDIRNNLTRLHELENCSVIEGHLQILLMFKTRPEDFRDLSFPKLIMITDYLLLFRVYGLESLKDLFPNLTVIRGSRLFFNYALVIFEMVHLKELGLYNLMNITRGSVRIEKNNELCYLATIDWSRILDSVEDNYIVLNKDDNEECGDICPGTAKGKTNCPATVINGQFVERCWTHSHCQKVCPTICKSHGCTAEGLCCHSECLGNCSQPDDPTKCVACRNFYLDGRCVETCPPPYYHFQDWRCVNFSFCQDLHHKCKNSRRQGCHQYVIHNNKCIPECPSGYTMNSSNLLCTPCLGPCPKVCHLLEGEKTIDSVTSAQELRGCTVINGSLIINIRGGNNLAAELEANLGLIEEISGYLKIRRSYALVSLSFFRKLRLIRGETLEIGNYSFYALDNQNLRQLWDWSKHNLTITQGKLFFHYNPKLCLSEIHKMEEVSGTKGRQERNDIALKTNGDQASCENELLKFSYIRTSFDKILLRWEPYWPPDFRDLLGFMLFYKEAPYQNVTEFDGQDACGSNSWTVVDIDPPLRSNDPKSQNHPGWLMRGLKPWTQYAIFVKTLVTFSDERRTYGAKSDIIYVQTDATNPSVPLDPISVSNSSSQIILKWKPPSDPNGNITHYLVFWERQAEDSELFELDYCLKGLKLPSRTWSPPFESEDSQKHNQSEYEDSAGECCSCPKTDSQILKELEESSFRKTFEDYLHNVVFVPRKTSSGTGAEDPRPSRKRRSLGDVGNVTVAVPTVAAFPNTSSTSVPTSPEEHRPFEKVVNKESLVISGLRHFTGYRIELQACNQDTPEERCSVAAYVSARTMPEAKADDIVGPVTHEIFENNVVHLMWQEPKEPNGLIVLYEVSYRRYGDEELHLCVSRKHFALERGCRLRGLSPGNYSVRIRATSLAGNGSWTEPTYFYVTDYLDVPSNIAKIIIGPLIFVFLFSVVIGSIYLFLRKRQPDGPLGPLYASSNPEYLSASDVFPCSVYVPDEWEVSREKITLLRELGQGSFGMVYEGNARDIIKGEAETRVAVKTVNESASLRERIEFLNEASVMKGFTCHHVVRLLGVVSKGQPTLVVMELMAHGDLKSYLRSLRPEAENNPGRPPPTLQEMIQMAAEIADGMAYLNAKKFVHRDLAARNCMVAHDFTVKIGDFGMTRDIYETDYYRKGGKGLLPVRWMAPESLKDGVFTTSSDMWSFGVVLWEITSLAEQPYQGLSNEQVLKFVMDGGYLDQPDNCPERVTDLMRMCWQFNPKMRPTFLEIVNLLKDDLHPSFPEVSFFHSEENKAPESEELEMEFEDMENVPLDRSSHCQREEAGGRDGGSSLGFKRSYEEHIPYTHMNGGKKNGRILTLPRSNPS

| SMILES | residual activity [%] |
| --- | --- |
| O=c1[nH]c2ccccc2n1C1CCN(Cc2ccc(-c3nc4cc5[nH]cnc5cc4nc3-c3ccccc3)cc2)CC1 | 102 |
| COc1cc2c(cc1OC)-c1[nH]nc(Nc3cccc(F)c3)c1C2 | 101 |
| Cn1cc(/C=C2\C(=O)Nc3ccc(S(N)(=O)=O)cc32)c2ccccc21 | 87.4 |
| COc1cccc(-c2cc(=O)c3ccccc3o2)c1N | 106 |

molecular target: TAOK1 (human) (UniProt Q7L7X3); experiment: as above; details: compound 0.5 µM; ATP 10 µM
Sequence (Q7L7X3 whole entry, looked up): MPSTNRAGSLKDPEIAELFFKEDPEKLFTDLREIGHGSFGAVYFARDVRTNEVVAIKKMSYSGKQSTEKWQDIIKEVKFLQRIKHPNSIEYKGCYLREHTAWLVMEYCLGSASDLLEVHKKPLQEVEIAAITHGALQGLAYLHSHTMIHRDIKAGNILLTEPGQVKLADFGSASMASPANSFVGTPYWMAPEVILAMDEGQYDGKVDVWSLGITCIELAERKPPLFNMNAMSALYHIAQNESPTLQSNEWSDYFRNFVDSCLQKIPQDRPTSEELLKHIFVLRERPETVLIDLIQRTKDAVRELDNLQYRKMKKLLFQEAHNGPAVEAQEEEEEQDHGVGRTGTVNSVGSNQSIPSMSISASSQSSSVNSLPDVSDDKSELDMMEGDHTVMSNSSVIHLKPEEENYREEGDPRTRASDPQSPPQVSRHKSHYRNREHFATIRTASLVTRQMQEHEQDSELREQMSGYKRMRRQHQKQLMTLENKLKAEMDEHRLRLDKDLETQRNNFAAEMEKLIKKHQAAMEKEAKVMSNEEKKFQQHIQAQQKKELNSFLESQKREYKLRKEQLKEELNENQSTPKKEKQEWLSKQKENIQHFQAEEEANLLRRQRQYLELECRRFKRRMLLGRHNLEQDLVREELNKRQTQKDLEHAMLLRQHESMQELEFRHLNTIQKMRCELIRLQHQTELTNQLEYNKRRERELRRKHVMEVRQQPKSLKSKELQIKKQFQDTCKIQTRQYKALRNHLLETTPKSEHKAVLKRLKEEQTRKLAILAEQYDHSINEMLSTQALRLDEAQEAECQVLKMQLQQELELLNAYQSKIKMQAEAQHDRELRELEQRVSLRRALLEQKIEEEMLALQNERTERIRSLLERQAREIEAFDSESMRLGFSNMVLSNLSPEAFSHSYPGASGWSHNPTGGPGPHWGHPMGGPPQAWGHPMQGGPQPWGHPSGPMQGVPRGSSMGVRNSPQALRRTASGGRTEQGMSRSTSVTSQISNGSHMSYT

| SMILES | residual activity [%] |
| --- | --- |
| O=c1[nH]c2ccccc2n1C1CCN(Cc2ccc(-c3nc4cc5[nH]cnc5cc4nc3-c3ccccc3)cc2)CC1 | 102 |
| COc1cc2c(cc1OC)-c1[nH]nc(Nc3cccc(F)c3)c1C2 | 76.3 |
| Cn1cc(/C=C2\C(=O)Nc3ccc(S(N)(=O)=O)cc32)c2ccccc21 | 98.3 |
| COc1cccc(-c2cc(=O)c3ccccc3o2)c1N | 77.9 |

molecular target: BLK (human) (UniProt P51451); experiment: as above; details: compound 0.5 µM; ATP 10 µM
Sequence (P51451 whole entry, looked up): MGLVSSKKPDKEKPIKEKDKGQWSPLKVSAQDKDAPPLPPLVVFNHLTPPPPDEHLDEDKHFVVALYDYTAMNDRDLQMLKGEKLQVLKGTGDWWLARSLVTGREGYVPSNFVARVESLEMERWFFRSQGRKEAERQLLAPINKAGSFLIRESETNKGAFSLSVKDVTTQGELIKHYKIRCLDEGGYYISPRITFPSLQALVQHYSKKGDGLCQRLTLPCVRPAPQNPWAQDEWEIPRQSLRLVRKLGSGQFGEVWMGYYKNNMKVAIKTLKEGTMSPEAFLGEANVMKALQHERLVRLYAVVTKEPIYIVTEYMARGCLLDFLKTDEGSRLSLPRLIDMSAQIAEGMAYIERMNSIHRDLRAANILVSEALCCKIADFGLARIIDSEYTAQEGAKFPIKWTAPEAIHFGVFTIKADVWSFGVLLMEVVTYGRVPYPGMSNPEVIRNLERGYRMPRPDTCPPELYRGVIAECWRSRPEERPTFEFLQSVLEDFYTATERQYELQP

| SMILES | residual activity [%] |
| --- | --- |
| O=c1[nH]c2ccccc2n1C1CCN(Cc2ccc(-c3nc4cc5[nH]cnc5cc4nc3-c3ccccc3)cc2)CC1 | 106 |
| COc1cc2c(cc1OC)-c1[nH]nc(Nc3cccc(F)c3)c1C2 | 74.2 |
| Cn1cc(/C=C2\C(=O)Nc3ccc(S(N)(=O)=O)cc32)c2ccccc21 | 42.9 |
| COc1cccc(-c2cc(=O)c3ccccc3o2)c1N | 107 |

molecular target: PRKCG (human) (UniProt P05129); experiment: as above; details: compound 0.5 µM; ATP 10 µM

| SMILES | residual activity [%] |
| --- | --- |
| O=c1[nH]c2ccccc2n1C1CCN(Cc2ccc(-c3nc4cc5[nH]cnc5cc4nc3-c3ccccc3)cc2)CC1 | 92.2 |
| COc1cc2c(cc1OC)-c1[nH]nc(Nc3cccc(F)c3)c1C2 | 102 |
| Cn1cc(/C=C2\C(=O)Nc3ccc(S(N)(=O)=O)cc32)c2ccccc21 | 106 |
| COc1cccc(-c2cc(=O)c3ccccc3o2)c1N | 100 |

molecular target: CSNK1E (human) (UniProt P49674); experiment: as above; details: compound 0.5 µM; ATP 10 µM
Sequence (P49674 whole entry, looked up): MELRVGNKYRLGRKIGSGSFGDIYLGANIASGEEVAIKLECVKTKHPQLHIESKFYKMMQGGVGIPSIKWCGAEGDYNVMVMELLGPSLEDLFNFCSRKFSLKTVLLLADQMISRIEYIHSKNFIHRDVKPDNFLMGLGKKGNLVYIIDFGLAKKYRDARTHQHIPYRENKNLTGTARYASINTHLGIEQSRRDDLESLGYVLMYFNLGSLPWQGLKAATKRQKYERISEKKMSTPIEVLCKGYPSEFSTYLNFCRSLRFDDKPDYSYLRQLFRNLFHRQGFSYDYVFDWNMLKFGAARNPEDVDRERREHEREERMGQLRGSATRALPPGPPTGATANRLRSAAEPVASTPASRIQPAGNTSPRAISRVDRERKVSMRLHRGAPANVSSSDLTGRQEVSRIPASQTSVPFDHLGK

| SMILES | residual activity [%] |
| --- | --- |
| O=c1[nH]c2ccccc2n1C1CCN(Cc2ccc(-c3nc4cc5[nH]cnc5cc4nc3-c3ccccc3)cc2)CC1 | 107 |
| COc1cc2c(cc1OC)-c1[nH]nc(Nc3cccc(F)c3)c1C2 | 94.3 |
| Cn1cc(/C=C2\C(=O)Nc3ccc(S(N)(=O)=O)cc32)c2ccccc21 | 89 |
| COc1cccc(-c2cc(=O)c3ccccc3o2)c1N | 97.5 |

molecular target: STK24 (human) (UniProt Q9Y6E0); experiment: as above; details: compound 0.5 µM; ATP 10 µM
Sequence (Q9Y6E0 whole entry, looked up): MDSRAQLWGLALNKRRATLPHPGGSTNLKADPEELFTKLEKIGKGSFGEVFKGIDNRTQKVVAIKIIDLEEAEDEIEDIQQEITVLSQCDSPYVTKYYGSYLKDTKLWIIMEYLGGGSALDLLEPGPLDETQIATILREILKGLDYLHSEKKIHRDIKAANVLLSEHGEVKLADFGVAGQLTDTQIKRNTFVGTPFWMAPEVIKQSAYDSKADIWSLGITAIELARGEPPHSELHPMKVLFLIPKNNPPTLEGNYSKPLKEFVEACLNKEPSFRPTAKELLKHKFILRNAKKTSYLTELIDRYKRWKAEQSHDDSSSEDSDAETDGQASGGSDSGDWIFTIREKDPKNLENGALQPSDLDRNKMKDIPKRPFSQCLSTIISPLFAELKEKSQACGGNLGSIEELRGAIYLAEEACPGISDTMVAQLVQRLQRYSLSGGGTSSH

| SMILES | residual activity [%] |
| --- | --- |
| O=c1[nH]c2ccccc2n1C1CCN(Cc2ccc(-c3nc4cc5[nH]cnc5cc4nc3-c3ccccc3)cc2)CC1 | 90.7 |
| COc1cc2c(cc1OC)-c1[nH]nc(Nc3cccc(F)c3)c1C2 | 99.9 |
| Cn1cc(/C=C2\C(=O)Nc3ccc(S(N)(=O)=O)cc32)c2ccccc21 | 80.2 |
| COc1cccc(-c2cc(=O)c3ccccc3o2)c1N | 108 |

molecular target: FGR (human) (UniProt P09769); experiment: as above; details: compound 0.5 µM; ATP 10 µM

| SMILES | residual activity [%] |
| --- | --- |
| O=c1[nH]c2ccccc2n1C1CCN(Cc2ccc(-c3nc4cc5[nH]cnc5cc4nc3-c3ccccc3)cc2)CC1 | 95.7 |
| COc1cc2c(cc1OC)-c1[nH]nc(Nc3cccc(F)c3)c1C2 | 47.2 |
| Cn1cc(/C=C2\C(=O)Nc3ccc(S(N)(=O)=O)cc32)c2ccccc21 | 28.4 |
| COc1cccc(-c2cc(=O)c3ccccc3o2)c1N | 94.8 |

molecular target: MAPK3 (human) (UniProt P27361); experiment: as above; details: compound 0.5 µM; ATP 10 µM
Sequence (P27361 whole entry, looked up): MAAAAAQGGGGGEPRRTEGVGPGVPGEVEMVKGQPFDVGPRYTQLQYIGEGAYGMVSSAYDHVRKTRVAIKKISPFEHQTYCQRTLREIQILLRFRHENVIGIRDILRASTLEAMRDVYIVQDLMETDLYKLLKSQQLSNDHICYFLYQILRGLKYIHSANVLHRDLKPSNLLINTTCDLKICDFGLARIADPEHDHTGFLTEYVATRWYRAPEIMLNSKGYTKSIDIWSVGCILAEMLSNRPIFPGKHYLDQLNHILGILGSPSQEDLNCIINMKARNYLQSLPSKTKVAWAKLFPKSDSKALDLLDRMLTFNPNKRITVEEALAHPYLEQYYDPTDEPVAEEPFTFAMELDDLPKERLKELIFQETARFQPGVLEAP

| SMILES | residual activity [%] |
| --- | --- |
| O=c1[nH]c2ccccc2n1C1CCN(Cc2ccc(-c3nc4cc5[nH]cnc5cc4nc3-c3ccccc3)cc2)CC1 | 118 |
| COc1cc2c(cc1OC)-c1[nH]nc(Nc3cccc(F)c3)c1C2 | 93.7 |
| Cn1cc(/C=C2\C(=O)Nc3ccc(S(N)(=O)=O)cc32)c2ccccc21 | 109 |
| COc1cccc(-c2cc(=O)c3ccccc3o2)c1N | 102 |

molecular target: PIM2 (human) (UniProt Q9P1W9); experiment: as above; details: compound 0.5 µM; ATP 10 µM
Sequence (Q9P1W9 whole entry, looked up): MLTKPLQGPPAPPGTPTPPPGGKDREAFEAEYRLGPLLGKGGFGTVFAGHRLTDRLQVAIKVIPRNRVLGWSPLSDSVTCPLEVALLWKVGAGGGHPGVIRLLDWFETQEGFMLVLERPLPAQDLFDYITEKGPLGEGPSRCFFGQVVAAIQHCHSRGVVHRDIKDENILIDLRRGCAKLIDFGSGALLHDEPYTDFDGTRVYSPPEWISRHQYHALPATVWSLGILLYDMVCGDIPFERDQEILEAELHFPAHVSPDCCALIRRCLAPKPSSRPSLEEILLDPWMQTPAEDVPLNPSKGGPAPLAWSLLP

| SMILES | residual activity [%] |
| --- | --- |
| O=c1[nH]c2ccccc2n1C1CCN(Cc2ccc(-c3nc4cc5[nH]cnc5cc4nc3-c3ccccc3)cc2)CC1 | 111 |
| COc1cc2c(cc1OC)-c1[nH]nc(Nc3cccc(F)c3)c1C2 | 119 |
| Cn1cc(/C=C2\C(=O)Nc3ccc(S(N)(=O)=O)cc32)c2ccccc21 | 101 |
| COc1cccc(-c2cc(=O)c3ccccc3o2)c1N | 99.3 |

molecular target: SGK3 (human) (UniProt Q96BR1); experiment: as above; details: compound 0.5 µM; ATP 10 µM
Sequence (Q96BR1 whole entry, looked up): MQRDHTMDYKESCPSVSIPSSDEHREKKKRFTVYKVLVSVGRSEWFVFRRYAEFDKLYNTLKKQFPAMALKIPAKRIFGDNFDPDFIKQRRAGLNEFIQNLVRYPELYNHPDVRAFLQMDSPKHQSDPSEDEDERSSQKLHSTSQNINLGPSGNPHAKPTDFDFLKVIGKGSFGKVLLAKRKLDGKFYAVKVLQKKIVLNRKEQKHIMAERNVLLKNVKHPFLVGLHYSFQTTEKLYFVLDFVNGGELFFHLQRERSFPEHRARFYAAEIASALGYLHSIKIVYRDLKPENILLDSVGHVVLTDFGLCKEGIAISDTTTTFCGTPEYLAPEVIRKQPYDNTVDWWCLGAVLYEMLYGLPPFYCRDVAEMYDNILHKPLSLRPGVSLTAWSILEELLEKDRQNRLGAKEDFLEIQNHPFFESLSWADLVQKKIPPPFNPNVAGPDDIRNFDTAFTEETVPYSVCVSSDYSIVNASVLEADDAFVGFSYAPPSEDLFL

| SMILES | residual activity [%] |
| --- | --- |
| O=c1[nH]c2ccccc2n1C1CCN(Cc2ccc(-c3nc4cc5[nH]cnc5cc4nc3-c3ccccc3)cc2)CC1 | 108 |
| COc1cc2c(cc1OC)-c1[nH]nc(Nc3cccc(F)c3)c1C2 | 92.7 |
| Cn1cc(/C=C2\C(=O)Nc3ccc(S(N)(=O)=O)cc32)c2ccccc21 | 94.7 |
| COc1cccc(-c2cc(=O)c3ccccc3o2)c1N | 101 |
